Measured values as given in publication PMC4774911, “Biochemical Screening of Five Protein Kinases from Plasmodium falciparum against 14,000 Cell-Active Compounds” (PLoS ONE, 2016).
Values joined by “and” are separate entries in the source; they are usually repeats but may differ in a detail not shown here. Equal values may be shown once.

Key:
[1] = system: human kinases in K562 cell extract; experiment: Kinobead competition assay, kinome-wide summary; type: binding; details: for Human kinases with apparent pKd ≥ 4.7 (N = 2) / Human kinases with apparent pKd ≥ 6 (N = 2): K562 extract, number of kinases, 20 μM-0.03 μM compound
Description: Kinobeads were prepared as described.

LOC100128443 = details: human
DDR1 = DDR1 (Homo sapiens, UniProt Q08345); experiment: biochemical; set-up: endogenous in cells; host or cells: K562 cell extract; species or system K562 (extract); replicate k of n = 2 (each experiment ID is one independent experiment; two experiment IDs per compound); details: read-out: KDapp
ABL2 = ABL2 (Homo sapiens, UniProt P42684); experiment: biochemical; set-up: endogenous in cells; host or cells: K562 cell extract; species or system K562 (extract); replicate k of n = 2 (each experiment ID is one independent experiment; two experiment IDs per compound); details: read-out: KDapp
PAK4 = PAK4 (Homo sapiens, UniProt O96013); experiment: biochemical; set-up: endogenous in cells; host or cells: K562 cell extract; species or system K562 (extract); replicate k of n = 2 (each experiment ID is one independent experiment; two experiment IDs per compound); details: read-out: KDapp
PIP5K3 = PIP5K3 (Homo sapiens, UniProt Q9Y2I7); experiment: biochemical; set-up: endogenous in cells; host or cells: K562 cell extract; species or system K562 (extract); replicate k of n = 2 (each experiment ID is one independent experiment; two experiment IDs per compound); details: read-out: KDapp
PRKD2 = target: T1, PRKD2 (Homo sapiens, UniProt Q9BZL6); experiment: biochemical; set-up: endogenous in cells; host or cells: K562 cell extract; species or system K562 (extract); replicate k of n = 2 (each experiment ID is one independent experiment; two experiment IDs per compound); details: read-out: KDapp
T1 sequence (Q9BZL6 1-878): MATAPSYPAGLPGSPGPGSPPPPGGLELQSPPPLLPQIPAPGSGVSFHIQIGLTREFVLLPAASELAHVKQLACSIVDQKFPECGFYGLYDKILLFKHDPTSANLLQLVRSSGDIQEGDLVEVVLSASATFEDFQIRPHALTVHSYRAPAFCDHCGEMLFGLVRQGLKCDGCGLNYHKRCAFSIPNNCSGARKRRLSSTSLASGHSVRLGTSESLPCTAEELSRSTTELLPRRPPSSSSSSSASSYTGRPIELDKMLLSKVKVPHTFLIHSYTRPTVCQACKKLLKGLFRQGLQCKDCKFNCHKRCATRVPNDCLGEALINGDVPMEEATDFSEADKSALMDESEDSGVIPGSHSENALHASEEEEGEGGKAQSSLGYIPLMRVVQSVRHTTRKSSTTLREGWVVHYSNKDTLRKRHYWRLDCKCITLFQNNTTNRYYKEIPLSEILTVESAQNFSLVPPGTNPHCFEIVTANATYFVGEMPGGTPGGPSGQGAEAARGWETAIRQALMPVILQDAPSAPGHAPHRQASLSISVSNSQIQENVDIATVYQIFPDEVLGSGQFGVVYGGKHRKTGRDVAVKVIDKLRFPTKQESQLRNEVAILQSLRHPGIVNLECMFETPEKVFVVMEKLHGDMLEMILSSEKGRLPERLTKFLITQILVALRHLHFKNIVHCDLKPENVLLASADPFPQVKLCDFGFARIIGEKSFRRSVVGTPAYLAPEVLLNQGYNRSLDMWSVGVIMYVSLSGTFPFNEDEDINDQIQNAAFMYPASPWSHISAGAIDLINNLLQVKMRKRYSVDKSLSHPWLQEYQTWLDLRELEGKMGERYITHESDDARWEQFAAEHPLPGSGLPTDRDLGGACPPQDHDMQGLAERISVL

STK11 = target: T2, STK11 (Homo sapiens, UniProt Q15831); experiment: biochemical; set-up: endogenous in cells; host or cells: K562 cell extract; species or system K562 (extract); replicate k of n = 2 (each experiment ID is one independent experiment; two experiment IDs per compound); details: read-out: KDapp
T2 sequence (Q15831 1-433): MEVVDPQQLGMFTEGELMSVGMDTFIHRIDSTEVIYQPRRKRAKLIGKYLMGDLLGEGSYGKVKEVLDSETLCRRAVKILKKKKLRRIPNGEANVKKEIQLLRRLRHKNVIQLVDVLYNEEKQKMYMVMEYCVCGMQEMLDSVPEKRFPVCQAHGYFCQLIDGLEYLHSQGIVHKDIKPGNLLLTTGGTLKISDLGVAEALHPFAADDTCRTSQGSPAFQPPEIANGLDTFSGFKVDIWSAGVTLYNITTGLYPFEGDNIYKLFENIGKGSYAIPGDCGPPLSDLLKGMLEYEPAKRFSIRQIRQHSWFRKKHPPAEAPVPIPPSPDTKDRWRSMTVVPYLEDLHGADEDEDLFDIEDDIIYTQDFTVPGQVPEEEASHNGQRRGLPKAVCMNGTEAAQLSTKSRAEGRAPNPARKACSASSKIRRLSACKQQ

STK10 = STK10 (Homo sapiens, UniProt O94804); experiment: biochemical; set-up: endogenous in cells; host or cells: K562 cell extract; species or system K562 (extract); replicate k of n = 2 (each experiment ID is one independent experiment; two experiment IDs per compound); details: read-out: KDapp
Sequence of STK10 (O94804 whole entry): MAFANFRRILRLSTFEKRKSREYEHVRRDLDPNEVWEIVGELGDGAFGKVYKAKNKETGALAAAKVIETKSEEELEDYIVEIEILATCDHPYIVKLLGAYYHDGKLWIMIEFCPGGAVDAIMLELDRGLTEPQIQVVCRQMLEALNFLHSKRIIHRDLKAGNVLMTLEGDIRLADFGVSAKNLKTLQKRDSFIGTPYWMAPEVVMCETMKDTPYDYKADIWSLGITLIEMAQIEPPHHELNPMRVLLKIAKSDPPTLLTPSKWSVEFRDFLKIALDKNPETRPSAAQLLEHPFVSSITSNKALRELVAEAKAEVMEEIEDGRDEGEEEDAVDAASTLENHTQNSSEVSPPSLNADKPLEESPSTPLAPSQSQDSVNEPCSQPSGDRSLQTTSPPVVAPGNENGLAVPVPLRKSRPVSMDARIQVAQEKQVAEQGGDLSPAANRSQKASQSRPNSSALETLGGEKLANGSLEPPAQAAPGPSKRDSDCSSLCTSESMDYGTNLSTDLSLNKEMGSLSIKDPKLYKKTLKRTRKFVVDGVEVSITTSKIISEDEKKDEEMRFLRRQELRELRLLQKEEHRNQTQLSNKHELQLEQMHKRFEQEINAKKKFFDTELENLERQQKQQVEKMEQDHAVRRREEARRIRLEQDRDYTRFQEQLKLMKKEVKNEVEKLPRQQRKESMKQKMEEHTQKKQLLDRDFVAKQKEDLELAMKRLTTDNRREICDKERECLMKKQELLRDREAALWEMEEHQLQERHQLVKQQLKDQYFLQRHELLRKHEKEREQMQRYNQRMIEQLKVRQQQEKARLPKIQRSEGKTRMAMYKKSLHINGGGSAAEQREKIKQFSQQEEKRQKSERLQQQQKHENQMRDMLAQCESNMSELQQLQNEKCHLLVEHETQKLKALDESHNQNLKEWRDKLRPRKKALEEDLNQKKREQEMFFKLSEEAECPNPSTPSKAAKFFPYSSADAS

Sequence of PIP5K3 (Q9Y2I7 whole entry): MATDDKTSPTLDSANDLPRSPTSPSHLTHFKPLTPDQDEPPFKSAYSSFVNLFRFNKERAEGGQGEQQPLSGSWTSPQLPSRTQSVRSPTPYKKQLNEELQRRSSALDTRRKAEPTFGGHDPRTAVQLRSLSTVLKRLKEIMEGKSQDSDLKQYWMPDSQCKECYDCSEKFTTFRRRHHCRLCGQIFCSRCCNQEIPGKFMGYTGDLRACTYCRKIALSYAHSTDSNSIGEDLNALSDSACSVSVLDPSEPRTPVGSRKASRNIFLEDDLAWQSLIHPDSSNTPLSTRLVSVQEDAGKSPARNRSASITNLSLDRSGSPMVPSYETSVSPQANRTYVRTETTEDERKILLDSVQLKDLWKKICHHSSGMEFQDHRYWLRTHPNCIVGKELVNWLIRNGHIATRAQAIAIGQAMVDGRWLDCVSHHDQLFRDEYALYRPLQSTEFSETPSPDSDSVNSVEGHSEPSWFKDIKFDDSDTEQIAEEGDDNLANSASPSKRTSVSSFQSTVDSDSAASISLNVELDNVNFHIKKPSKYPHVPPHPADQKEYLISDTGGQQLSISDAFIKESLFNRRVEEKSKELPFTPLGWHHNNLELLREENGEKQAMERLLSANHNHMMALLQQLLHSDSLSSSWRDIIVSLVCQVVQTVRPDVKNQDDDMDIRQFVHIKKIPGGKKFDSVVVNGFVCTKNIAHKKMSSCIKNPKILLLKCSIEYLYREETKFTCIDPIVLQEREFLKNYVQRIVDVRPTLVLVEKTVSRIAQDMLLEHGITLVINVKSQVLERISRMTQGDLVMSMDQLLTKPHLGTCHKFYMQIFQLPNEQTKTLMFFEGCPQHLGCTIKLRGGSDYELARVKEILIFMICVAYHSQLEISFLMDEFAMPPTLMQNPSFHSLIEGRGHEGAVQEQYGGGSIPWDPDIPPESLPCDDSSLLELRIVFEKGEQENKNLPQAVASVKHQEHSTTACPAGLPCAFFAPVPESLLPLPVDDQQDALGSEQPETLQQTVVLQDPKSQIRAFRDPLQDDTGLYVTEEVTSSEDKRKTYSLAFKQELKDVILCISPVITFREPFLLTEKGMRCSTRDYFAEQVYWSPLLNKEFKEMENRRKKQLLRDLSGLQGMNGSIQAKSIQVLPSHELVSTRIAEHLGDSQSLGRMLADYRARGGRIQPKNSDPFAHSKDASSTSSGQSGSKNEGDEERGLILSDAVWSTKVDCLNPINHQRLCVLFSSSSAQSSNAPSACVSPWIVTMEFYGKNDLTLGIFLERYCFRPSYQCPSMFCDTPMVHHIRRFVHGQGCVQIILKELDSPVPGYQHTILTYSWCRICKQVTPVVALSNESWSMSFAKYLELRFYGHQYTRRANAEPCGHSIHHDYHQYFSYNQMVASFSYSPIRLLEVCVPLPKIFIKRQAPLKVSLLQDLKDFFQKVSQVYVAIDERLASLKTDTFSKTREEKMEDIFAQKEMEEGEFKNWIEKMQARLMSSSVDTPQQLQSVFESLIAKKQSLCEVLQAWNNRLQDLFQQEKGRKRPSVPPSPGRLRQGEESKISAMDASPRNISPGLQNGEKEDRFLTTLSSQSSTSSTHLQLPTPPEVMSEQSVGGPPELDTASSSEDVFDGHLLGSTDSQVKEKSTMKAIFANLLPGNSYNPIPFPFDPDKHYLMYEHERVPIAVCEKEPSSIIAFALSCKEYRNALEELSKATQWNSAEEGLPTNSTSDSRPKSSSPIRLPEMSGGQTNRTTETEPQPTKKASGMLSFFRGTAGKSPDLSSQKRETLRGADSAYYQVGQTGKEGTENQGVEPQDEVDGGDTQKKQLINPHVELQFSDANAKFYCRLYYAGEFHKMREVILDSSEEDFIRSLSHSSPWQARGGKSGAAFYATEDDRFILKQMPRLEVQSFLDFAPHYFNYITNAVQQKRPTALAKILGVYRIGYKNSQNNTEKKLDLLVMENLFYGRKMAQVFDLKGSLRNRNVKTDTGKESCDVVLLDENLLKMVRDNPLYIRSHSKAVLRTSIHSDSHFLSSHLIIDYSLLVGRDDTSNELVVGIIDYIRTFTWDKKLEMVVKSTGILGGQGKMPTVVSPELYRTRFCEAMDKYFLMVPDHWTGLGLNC
Sequence of PAK4 (O96013 whole entry): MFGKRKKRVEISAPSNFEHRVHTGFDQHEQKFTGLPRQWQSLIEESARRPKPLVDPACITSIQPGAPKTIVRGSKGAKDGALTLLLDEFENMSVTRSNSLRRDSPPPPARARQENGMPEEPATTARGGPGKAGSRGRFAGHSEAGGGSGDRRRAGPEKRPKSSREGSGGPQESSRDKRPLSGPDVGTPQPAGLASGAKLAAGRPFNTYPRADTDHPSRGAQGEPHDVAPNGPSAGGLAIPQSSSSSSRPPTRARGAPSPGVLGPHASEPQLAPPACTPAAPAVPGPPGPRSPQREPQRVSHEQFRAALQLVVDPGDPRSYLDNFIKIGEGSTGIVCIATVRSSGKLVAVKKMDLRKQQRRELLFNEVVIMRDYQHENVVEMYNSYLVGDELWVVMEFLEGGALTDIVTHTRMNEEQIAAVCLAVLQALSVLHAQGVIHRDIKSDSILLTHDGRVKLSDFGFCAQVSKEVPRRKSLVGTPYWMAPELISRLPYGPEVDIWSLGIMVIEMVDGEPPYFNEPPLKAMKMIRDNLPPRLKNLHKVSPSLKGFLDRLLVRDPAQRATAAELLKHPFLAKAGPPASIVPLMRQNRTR
Sequence of DDR1 (Q08345 whole entry): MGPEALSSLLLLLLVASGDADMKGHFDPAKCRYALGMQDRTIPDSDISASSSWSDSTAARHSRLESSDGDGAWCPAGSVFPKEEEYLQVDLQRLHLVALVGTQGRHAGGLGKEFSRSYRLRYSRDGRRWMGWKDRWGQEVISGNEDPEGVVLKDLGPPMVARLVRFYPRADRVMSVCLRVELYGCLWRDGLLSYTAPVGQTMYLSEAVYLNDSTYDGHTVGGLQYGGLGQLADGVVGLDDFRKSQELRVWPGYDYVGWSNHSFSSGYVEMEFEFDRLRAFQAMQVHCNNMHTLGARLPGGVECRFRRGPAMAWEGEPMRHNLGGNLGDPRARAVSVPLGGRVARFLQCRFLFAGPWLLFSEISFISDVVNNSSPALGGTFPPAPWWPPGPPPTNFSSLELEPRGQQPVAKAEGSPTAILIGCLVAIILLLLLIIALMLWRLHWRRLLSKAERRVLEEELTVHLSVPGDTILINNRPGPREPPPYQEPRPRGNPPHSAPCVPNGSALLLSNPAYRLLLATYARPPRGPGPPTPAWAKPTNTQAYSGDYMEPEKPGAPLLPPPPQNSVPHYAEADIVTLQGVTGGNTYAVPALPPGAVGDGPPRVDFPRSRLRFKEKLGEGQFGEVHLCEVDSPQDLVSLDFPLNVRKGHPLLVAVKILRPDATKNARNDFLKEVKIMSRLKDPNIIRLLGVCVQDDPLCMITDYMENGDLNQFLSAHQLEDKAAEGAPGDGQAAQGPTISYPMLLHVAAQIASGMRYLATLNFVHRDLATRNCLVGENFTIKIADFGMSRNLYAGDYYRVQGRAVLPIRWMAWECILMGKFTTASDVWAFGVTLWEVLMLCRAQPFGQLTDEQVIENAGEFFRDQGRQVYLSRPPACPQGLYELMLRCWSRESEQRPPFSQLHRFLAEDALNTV

CN(C)CC(O)COc1ccc(Nc2ncc([N+](=O)[O-])c(Nc3ccccc3O)n2)cc1.O=C(O)C(F)(F)F (stereo not shown) [TCMDC-141399]
Human kinases with apparent pKd ≥ 4.7 (N = 2) [1]: 63
Human kinases with apparent pKd ≥ 6 (N = 2) [1]: 24
IC50 (LOC100128443): > 20000 nM
Kd (DDR1): 5970 nM
Kd (ABL2): 1890 nM
Kd (PAK4): 4850 nM and 3670 nM
Kd (PIP5K3): 3930 nM and 2770 nM
Kd (PRKD2): 921 nM
Kd (STK11): 3940 nM
Kd (STK10): 3360 nM

Cl.NCC1(c2nc(-c3ccc(Cl)c(O)c3)c(-c3ccncc3)[nH]2)CCCCC1 [TCMDC-141154]
Human kinases with apparent pKd ≥ 4.7 (N = 2) [1]: 47
Human kinases with apparent pKd ≥ 6 (N = 2) [1]: 26
IC50 (LOC100128443): > 20000 nM
Kd (DDR1): 977 nM
Kd (ABL2): 220 nM and 180 nM
Kd (PAK4): 4910 nM
Kd (PIP5K3): 524 nM
Kd (PRKD2): 2520 nM and 2080 nM
Kd (STK11): 1250 nM
Kd (STK10): 30.4 nM

CN1CCN(c2ccc(Nc3ncc(C#N)c(Nc4ccccc4C(N)=O)n3)cc2)CC1.Cl [TCMDC-134116]
Share of human kinases tested bound with high affinity (pKd ≥ 6) ([1]; K562 extract kinobeads): two thirds
Human kinases with apparent pKd ≥ 4.7 (N = 2) [1]: 126
Human kinases with apparent pKd ≥ 6 (N = 2) [1]: 96
IC50 (LOC100128443): 330 nM
Kd (DDR1): 326 nM and 266 nM
Kd (ABL2): 89.8 nM and 71.9 nM
Kd (PAK4): 205 nM and 227 nM
Kd (PIP5K3): 681 nM and 785 nM
Kd (PRKD2): 165 nM and 160 nM
Kd (STK11): 894 nM
Kd (STK10): 25.6 nM and 49.6 nM
